# Test results published in ChEMBL document CHEMBL3797052 (Eur J Med Chem, 2016).
# Tests used:
# Type in all cases: functional
# K562 = experiment: Antiproliferative activity against human K562 cells assessed as cell growth at 10^-5 M after 48 hrs by sulforhodamine B assay; conditions: K562, 48 h, read-out: Activity
# [1] = Antiproliferative activity against human MOLT4 cells assessed as cell growth at 10^-5 M after 48 hrs by sulforhodamine B assay; conditions: MOLT-4, 48 h, read-out: Activity
# [2] = Antiproliferative activity against human RPMI8226 cells assessed as cell growth at 10^-5 M after 48 hrs by sulforhodamine B assay; conditions: RPMI-8226, 48 h, read-out: Activity
# SR = experiment: Antiproliferative activity against human SR cells assessed as cell growth at 10^-5 M after 48 hrs by sulforhodamine B assay; conditions: read-out: Activity
# EKVX [3] = experiment: Antiproliferative activity against human EKVX cells assessed as cell growth at 10^-5 M after 48 hrs by sulforhodamine B assay; conditions: read-out: Activity
# [4] = Antiproliferative activity against human HOP62 cells assessed as cell growth at 10^-5 M after 48 hrs by sulforhodamine B assay; conditions: HOP-62, 48 h, read-out: Activity
# NCI-H460 = experiment: Antiproliferative activity against human NCI-H460 cells assessed as cell growth at 10^-5 M after 48 hrs by sulforhodamine B assay; conditions: NCI-H460, 48 h, read-out: Activity
# NCI-H522 = experiment: Antiproliferative activity against human NCI-H522 cells assessed as cell growth at 10^-5 M after 48 hrs by sulforhodamine B assay; conditions: NCI-H522, 48 h, read-out: Activity
# [5] = Antiproliferative activity against human HCT116 cells assessed as cell growth at 10^-5 M after 48 hrs by sulforhodamine B assay; conditions: HCT-116, 48 h, read-out: Activity
# HT-29 [6] = experiment: Antiproliferative activity against human HT-29 cells assessed as cell growth at 10^-5 M after 48 hrs by sulforhodamine B assay; conditions: HT-29, 48 h, read-out: Activity
# [7] = Antiproliferative activity against human SF295 cells assessed as cell growth at 10^-5 M after 48 hrs by sulforhodamine B assay; conditions: SF-295, 48 h, read-out: Activity
# [8] = Antiproliferative activity against human SF539 cells assessed as cell growth at 10^-5 M after 48 hrs by sulforhodamine B assay; conditions: SF-539, 48 h, read-out: Activity
# [9] = Antiproliferative activity against human SNB75 cells assessed as cell growth at 10^-5 M after 48 hrs by sulforhodamine B assay; conditions: SNB-75, 48 h, read-out: Activity
# U-251 [10] = experiment: Antiproliferative activity against human U251 cells assessed as cell growth at 10^-5 M after 48 hrs by sulforhodamine B assay; conditions: U-251, 48 h, read-out: Activity
# [11] = Antiproliferative activity against human LOXIMVI cells assessed as cell growth at 10^-5 M after 48 hrs by sulforhodamine B assay; conditions: LOX IMVI, read-out: Activity
# [12] = Antiproliferative activity against human OVCAR4 cells assessed as cell growth at 10^-7 M after 48 hrs by sulforhodamine B assay; conditions: OVCAR-4, 48 h, read-out: Activity
# MCF7 [13] = experiment: Antiproliferative activity against human MCF7 cells assessed as cell growth at 10^-7 M after 48 hrs by sulforhodamine B assay; conditions: MCF7, 48 h, read-out: Activity
# Malme-3M [14] = experiment: Antiproliferative activity against human MALME-3M cells assessed as cell growth at 10^-5 M after 48 hrs by sulforhodamine B assay; conditions: read-out: Activity
# M14 = experiment: Antiproliferative activity against human M14 cells assessed as cell growth at 10^-5 M after 48 hrs by sulforhodamine B assay; conditions: M14, 48 h, read-out: Activity
# SK-MEL-28 [15] = experiment: Antiproliferative activity against human SK-MEL-28 cells assessed as cell growth at 10^-5 M after 48 hrs by sulforhodamine B assay; conditions: SK-MEL-28, 48 h, read-out: Activity
# SK-MEL-5 = experiment: Antiproliferative activity against human SK-MEL-5 cells assessed as cell growth at 10^-5 M after 48 hrs by sulforhodamine B assay; conditions: SK-MEL-5, 48 h, read-out: Activity
# [16] = Antiproliferative activity against human UACC62 cells assessed as cell growth at 10^-5 M after 48 hrs by sulforhodamine B assay; conditions: UACC-62, 48 h, read-out: Activity
# [17] = Antiproliferative activity against human NCI-ADR-RES cells assessed as cell growth at 10^-5 M after 48 hrs by sulforhodamine B assay; conditions: read-out: Activity
# ACHN = experiment: Antiproliferative activity against human ACHN cells assessed as cell growth at 10^-5 M after 48 hrs by sulforhodamine B assay; conditions: read-out: Activity
# [18] = Antiproliferative activity against human RXF393 cells assessed as cell growth at 10^-5 M after 48 hrs by sulforhodamine B assay; conditions: RXF 393, 48 h, read-out: Activity
# [19] = Antiproliferative activity against human TK10 cells assessed as cell growth at 10^-5 M after 48 hrs by sulforhodamine B assay; conditions: TK-10, 48 h, read-out: Activity
# [20] = Antiproliferative activity against human UO31 cells assessed as cell growth at 10^-5 M after 48 hrs by sulforhodamine B assay; conditions: UO-31, 48 h, read-out: Activity
# MCF7 [21] = experiment: Antiproliferative activity against human MCF7 cells assessed as cell growth at 10^-5 M after 48 hrs by sulforhodamine B assay; conditions: MCF7, 48 h, read-out: Activity
# KM12 = experiment: Antiproliferative activity against human KM12 cells assessed as growth inhibition after 48 hrs by sulforhodamine B assay; conditions: KM12, 48 h
# HT-29 [22] = experiment: Antiproliferative activity against human HT-29 cells assessed as growth inhibition after 48 hrs by sulforhodamine B assay; conditions: HT-29, 48 h
# NCI-H322M = experiment: Antiproliferative activity against human NCI-H322M cells assessed as growth inhibition after 48 hrs by sulforhodamine B assay
# EKVX [23] = experiment: Antiproliferative activity against human EKVX cells assessed as cell growth at 10^-6 M after 48 hrs by sulforhodamine B assay; conditions: read-out: Activity
# [24] = Antiproliferative activity against human SF539 cells assessed as cell growth at 10^-6 M after 48 hrs by sulforhodamine B assay; conditions: SF-539, 48 h, read-out: Activity
# T47D = experiment: Antiproliferative activity against human T47D cells assessed as cell growth at 10^-5 M after 48 hrs by sulforhodamine B assay; conditions: read-out: Activity
# [25] = Antiproliferative activity against human SF295 cells assessed as cell growth at 10^-4 M after 48 hrs by sulforhodamine B assay; conditions: SF-295, 48 h, read-out: Activity
# U-251 [26] = experiment: Antiproliferative activity against human U251 cells assessed as cell growth at 10^-4 M after 48 hrs by sulforhodamine B assay; conditions: U-251, 48 h, read-out: Activity
# [27] = Antiproliferative activity against human LOXIMVI cells assessed as cell growth at 10^-4 M after 48 hrs by sulforhodamine B assay; conditions: LOX IMVI, read-out: Activity
# Malme-3M [28] = experiment: Antiproliferative activity against human MALME-3M cells assessed as cell growth at 10^-4 M after 48 hrs by sulforhodamine B assay; conditions: read-out: Activity
# SK-MEL-28 [29] = experiment: Antiproliferative activity against human SK-MEL-28 cells assessed as cell growth at 10^-8 M after 48 hrs by sulforhodamine B assay; conditions: SK-MEL-28, 48 h, read-out: Activity
structure (smiles),measurement,setting,value
CNC(=O)c1cc(Oc2ccc3nc(NC(=O)c4cc(C(F)(F)F)cc(C(F)(F)F)c4)sc3c2)ccn1,growth at 10 µM,K562,7%
same,growth at 10 µM,[1],1%
same,growth at 10 µM,[2],10%
same,growth at 10 µM,SR,5%
same,growth at 10 µM,EKVX [3],15%
same,growth at 10 µM,[4],2%
same,growth at 10 µM,NCI-H460,14%
same,growth at 10 µM,NCI-H522,-6%
same,growth at 10 µM,[5],7%
same,growth at 10 µM,HT-29 [6],15%
same,growth at 10 µM,[7],1%
same,growth at 10 µM,[8],12%
same,growth at 10 µM,[9],10%
same,growth at 10 µM,U-251 [10],12%
same,growth at 10 µM,[11],11%
same,growth at 0.1 µM,[12],92%
same,growth at 0.1 µM,MCF7 [13],89%
same,growth at 10 µM,Malme-3M [14],-17%
same,growth at 10 µM,M14,15%
same,growth at 10 µM,SK-MEL-28 [15],22%
same,growth at 10 µM,SK-MEL-5,-66%
same,growth at 10 µM,[16],5%
same,growth at 10 µM,[17],15%
same,growth at 10 µM,ACHN,6%
same,growth at 10 µM,[18],-8%
same,growth at 10 µM,[19],8%
same,growth at 10 µM,[20],-4%
same,growth at 10 µM,MCF7 [21],17%
same,GI50,KM12,2.7 µM
same,LC50,KM12,92.7 µM
same,TGI,KM12,11 µM
same,GI50,HT-29 [22],3.86 µM
same,LC50,HT-29 [22],96.9 µM
same,TGI,HT-29 [22],16.8 µM
same,GI50,NCI-H322M,3.7 µM
same,LC50 (50% lethal concentration),NCI-H322M,> 100 µM
same,TGI,NCI-H322M,19.8 µM
same,growth at 1 µM,EKVX [23],90%
same,growth at 1 µM,[24],87%
same,growth at 10 µM,T47D,-4%
same,growth at 100 µM,[25],-73%
same,growth at 100 µM,U-251 [26],-73%
same,growth at 100 µM,[27],-51%
same,growth at 100 µM,Malme-3M [28],-38%
same,growth at 0.01 µM,SK-MEL-28 [29],97%
CNC(=O)c1cc(Oc2ccc3nc(NC(=O)Nc4ccc(Cl)c(Cl)c4)sc3c2)ccn1,growth at 10 µM,K562,55%
same,growth at 10 µM,[1],76%
same,growth at 10 µM,[2],9%
same,growth at 10 µM,SR,39%
same,growth at 10 µM,EKVX [3],16%
same,growth at 10 µM,[4],-79%
same,growth at 10 µM,NCI-H460,-40%
same,growth at 10 µM,NCI-H522,20%
same,growth at 10 µM,[5],-50%
same,growth at 10 µM,HT-29 [6],-61%
same,growth at 10 µM,[7],-81%
same,growth at 10 µM,[8],-49%
same,growth at 10 µM,[9],-69%
same,growth at 10 µM,U-251 [10],-84%
same,growth at 10 µM,[11],-79%
same,growth at 0.1 µM,[12],100%
same,growth at 0.1 µM,MCF7 [13],89%
same,growth at 10 µM,Malme-3M [14],-71%
same,growth at 10 µM,M14,-47%
same,growth at 10 µM,SK-MEL-28 [15],-72%
same,growth at 10 µM,SK-MEL-5,-32%
same,growth at 10 µM,[16],-11%
same,growth at 10 µM,[17],-43%
same,growth at 10 µM,ACHN,-30%
same,growth at 10 µM,[18],-74%
same,growth at 10 µM,[19],-4%
same,growth at 10 µM,[20],-72%
same,growth at 10 µM,MCF7 [21],4%
same,GI50,KM12,3 µM
same,LC50,KM12,> 100 µM
same,TGI,KM12,> 100 µM
same,GI50,HT-29 [22],2.16 µM
same,TGI,HT-29 [22],4.31 µM
same,GI50,NCI-H322M,2.45 µM
same,LC50 (50% lethal concentration),NCI-H322M,> 100 µM
same,growth at 1 µM,EKVX [23],86%
same,growth at 1 µM,[24],100%
same,growth at 10 µM,T47D,-26%
same,growth at 100 µM,[25],-74%
same,growth at 100 µM,U-251 [26],-90%
same,growth at 100 µM,[27],-62%
same,growth at 100 µM,Malme-3M [28],-75%
same,growth at 0.01 µM,SK-MEL-28 [29],95%
